We go through two molecules from ChEMBL document CHEMBL1129844, “Mechanism-based inactivation of l-pipecolate oxidase by a sulfur-containing substrate analog, 5-thia-l-pipecolic acid” (Bioorg Med Chem Lett, 1997).

Values joined by “and” are separate entries in the source; they are usually repeats but may differ in a detail not shown here. Equal values may be shown once.

Series [1] has as its target T1, Peroxisomal sarcosine oxidase (Homo sapiens) (UniProt Q9P0Z9).
T1 sequence (whole entry): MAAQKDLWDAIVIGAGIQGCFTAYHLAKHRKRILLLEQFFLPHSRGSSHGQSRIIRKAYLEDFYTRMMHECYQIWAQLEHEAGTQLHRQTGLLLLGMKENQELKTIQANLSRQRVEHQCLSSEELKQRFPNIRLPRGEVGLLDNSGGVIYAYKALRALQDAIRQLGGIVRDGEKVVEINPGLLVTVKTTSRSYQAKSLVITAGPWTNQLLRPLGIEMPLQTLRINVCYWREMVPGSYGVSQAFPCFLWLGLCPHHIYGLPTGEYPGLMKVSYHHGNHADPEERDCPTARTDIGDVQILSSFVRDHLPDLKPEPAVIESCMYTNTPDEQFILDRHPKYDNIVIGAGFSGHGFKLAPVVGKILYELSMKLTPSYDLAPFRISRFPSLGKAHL
In words: Kinetic parameter was evaluated for L-pipecolate oxidase in Frozen Rhesus monkey liver ith L-PA as substrate. The series is classed as tissue-based. Particulars: Cercopithecidae, target entry is the homologue from another species.

The target in series [2] is T2, Peroxisomal sarcosine oxidase (Homo sapiens, UniProt Q9P0Z9).
T2 sequence (Q9P0Z9 whole entry): T1 sequence (whole entry)
In words: Time and concentration dependent inhibition of L-pipecolate oxidase was determined by the compound. Set-up: species or system Cercopithecidae.

Series [3] addresses T1, Peroxisomal sarcosine oxidase (Homo sapiens). The series can be described thus: Kinetic parameter was evaluated for L-pipecolate oxidase was expressed as K observed. Conditions: Cercopithecidae.
Series [4] shares this target. The series can be described thus: Kinetic parameter was evaluated for L-pipecolate oxidase. Conditions: Cercopithecidae.
For series [5] the target is unchanged. In words: (§1) Kinetic parameter was evaluated for L-pipecolate oxidase using the peroxidase-coupled assay. Conditions: Cercopithecidae.
Series [6] in a line: Partition ratio was calculated from the ratio of kcat/kinact.
Substrate in series [7]: O=C(O)[C@@H]1CCSCN1
The series is described as §1. Particulars: Cercopithecidae.

With `O=C(O)[C@@H]1CCSCN1`, the k cat in series [1] came to 0.13 s⁻¹; in series [5], 0.085 s⁻¹. Moreover, affinity in series [2] was put at a Ki of 36 mM. In series [3], the k obs was 4.01e-05 s⁻¹ and 4.26e-05 s⁻¹. Also, the K inact in series [4] turned out to be 0.06 min⁻¹. The Ratio in series [6] was 85.

B1: Peroxisomal sarcosine oxidase (Homo sapiens), Q9P0Z9 (protein)
chain: T1 sequence (whole entry)
As to B1, in series [7], the Km (in general, the concentration of substrate that gives half-maximal velocity) turned out to be 940 µM.
